These results are taken from patent publication US20240075073A1, “TREATING OPTIC NEURITIS WITH INDUCED PLURIPOTENT STEM CELL-DERIVED OLIGODENDROCYTE PRECURSOR CELLS” (Mayo Foundation for Medical Education and Research, priority 2016, published 2024).

Data set [1] relates to optic nerve of cuprizone-fed mice. As to the kind of experiment: Visual evoked potentials (VEP) in cuprizone-fed mice with or without OPC transplant. It counts as in vivo. As for the experimental part:
(§1) Cuprizone is a copper chelator, which causes apoptosis of mature oligodendroglia, followed by microglial recruitment, and phagocytosis of myelin. Demyelination was induced by feeding mice a diet containing 0.3% cuprizone for 9 weeks. […] Peak demyelination occurred at 6-7 weeks with spontaneous remyelination occurring 2-4 weeks after transition to regular diet. Efficacy of OPC transplants upon reintroduction of regular diet was evaluated. Assessment of remyelination following transplant was performed as described elsewhere (Deb et al., PLoS One, 5:e12478 (2010)). Briefly, semi-thin sections of optic nerves were stained with para-phenylenediamine, imaged at 100× magnification following a predetermined sampling scheme, and analyzed using automated ImageJ macros to measure myelinated fibers.
Maintaining a sterile field, 1.0 μL of media containing >10^4 OPCs were injected into the vitreous humor of anesthetized mice, using a custom 34-gauge needle mounted on a 5 μL Hamilton syringe. Despite the small dimensions of the murine eye and the high needle gauge, OPCs were consistently and reproducibly delivered into the vitreous cavity with this method, and transferred cells were imaged using fluorescent fundus imaging of the mouse eye (evidence from >30 mice; data not included) (FIG. 6A).
To measure the functional outcomes of OPC transplantation, VEPs were recorded. Intracranial supradural screw electrodes (plastics1.com 8L0X3905201F) were implanted over the visual cortex as described elsewhere (Deb et al., (2010) PLoS One 5:e12478) (FIG. 4I-4K). After dark adaptation, mice were placed in a recording chamber connected to a recording system (8200-K1-SE3, Pinnacle Technology) using an implanted EEG headmount (8235-SM, Pinnacle Tech) tethered to a preamplifier (8202-SE3, Pinnacle Tech) and an analog-to-digital converter. Mice were visually stimulated by an on-axis flashing LED. VEPs were recorded with varying stimulus blocks from 0.1 Hz to 1000 Hz (controlled via a programmable Arduino Diecimila). Recording parameters measured latency to N1 (the first negative peak following stimulation), amplitude range between Nmax-Pmax (first positive peak after stimulation), number of stimuli not followed by a response, duration of visual evoked response, pulse width of Pmax. Any delay in conduction velocity through the optic nerve increased time to N1, whereas axonal degeneration led to decrease in amplitude range, and an increase in response duration as well as increased pulse width due to non-synchronous firing of neurons, providing a very sensitive measure of optic nerve function.
Mice were subjected to electrode implantation surgery and either received OPC transplant or served as controls (FIGS. 7A-C), and visual evoked potential (VEP) averaging was used to establish measurements of evoked potential amplitude, latency, and peak pulse-width (FIG. 7D). Representative waveforms of VEP recordings in a healthy control animal (FIG. 7E), cuprizone-fed animal (FIG. 7F), and cuprizone-fed animal transplanted with OPCs (FIG. 7G). Latency was measured as the time from the visual stimulus to the first negative peak in the VEP impulse (FIG. 7H). An increased latency indicated decreased conduction velocity as a result of loss of myelin and Nodes of Ranvier. […] Peak width was measured as the duration of the first positive impulse at half-maximum amplitude. […]

Data set [2] concerns murine optic nerves. The following applies: mice on diet containing 0.3% cuprizone; cited from earlier work.
In data set [3] the test system is murine optic nerves. Briefly: PPD staining and electron microscopy of optic nerve sections, cuprizone demyelination and remyelination after OPC transplant. Type of data set: in vivo, mice. The procedure:
as §1
For collection of optic nerves and brain tissue, mice were perfused with 4% paraformaldehyde or Trump's fixative, and CNS tissues were post-fixed in the respective solution for 24 hours.
Cuprizone is a copper chelator that causes apoptosis of mature oligodendroglia, followed by microglial recruitment and phagocytosis of myelin. Demyelination was induced by feeding mice a diet containing 0.3% cuprizone for 9 weeks. […] Peak demyelination occurs at 6-7 weeks with spontaneous remyelination occurring 2-4 weeks after transition to regular diet. […] Optical coherence tomography (OCT) provided quantitative assessment of neuroretinal integrity. The retinal layers measured along the green line in FIG. 4E in a healthy mouse (FIG. 4F). Note the clear retinal nerve fiber layer (RNFL), as outlined in FIG. 4H. The retinal layers measured along the yellow line in FIG. 4E in a healthy mouse (FIG. 4G). Note the thick ganglion cell layer (GCL), as outlined in FIG. 4H. Head mount surgery for placement of VEP electrodes and recording locations (FIG. 4I-K). Visual evoked potentials (VEPs) measured in the visual cortex induced by a 0.3 Hz light pulse (FIG. 4L). […] VEP averaging is used to establish measurements of evoked potential amplitude, latency, and pulse width (FIG. 4M). […]

Setting [4] is: 0.3 Hz stimulation frequency, cuprizone-fed animal compared to regular diet (FIG. 4N).

Entries after “also recorded” stand apart in the source; their conditions may differ.

`O=C(NN=C1CCCCC1)C(=O)NN=C1CCCCC1` [cuprizone]: the “failure to transmit impulses in VEP recording” value in data set [1] (setting [4]) is given as “increased failure to transmit impulses”. In addition, the “latency to N1 in VEP recording from visual cortex” value in data set [1] (setting [4]) is “increased latency to N1”. In addition, in data set [1] (after cuprizone treatment for nine weeks, no transplant, healthy baseline 276 ms, n=5), the “average latency (time from visual stimulus to first negative peak in the VEP impulse)” value is recorded as 371 ms. Further, the “peak width, shortest half for peak width values” in data set [1] (after demyelination with cuprizone, no transplant, n=5) is given as “increased”. In addition, the “number of missed responses” value in data set [1] (cuprizone-fed animals, no transplant, n=5) is given as “greatly increased”. For the same molecule, the “time of peak demyelination” value with murine optic nerves [2] was 6-7 weeks. In addition, the “optic nerve myelination, PPD staining of semi-thin sections” value in the data set with murine optic nerves [3] (after 6 weeks of cuprizone treatment) and with murine optic nerves [3] (after 9 weeks of cuprizone treatment) was “profound demyelination” each time. The “myelin layers in electron micrographs of thin optic nerve cross sections” value with murine optic nerves [3] (cuprizone-treated animals, no transplant) is “thinning and disorganization of myelin layers; also recorded: thinning, and disorganization of myelin layers”.
